Experiment: Water-solubility of dye
Type: physicochemical
Conditions: maximum mass of the dye in a sodium salt form that can be dissolved in 100 g of pure water at 20° C.

Row | Compound | water-solubility of the dye
1 | C.I. Direct Blue 199 | (30 g)
2 | C.I. Direct Red 249 | (21 g)
3 | CCN(Cc1cccc(S(=O)(=O)[O-])c1)c1ccc(C(=C2C=CC(=[N+](CC)Cc3cccc(S(=O)(=O)[O-])c3)C=C2)c2ccccc2S(=O)(=O)[O-])cc1.[Na+].[Na+] [C.I. Acid Blue 9] | Blue 9 (40 g)
4 | C.I. Direct Red 289 | (14 g)
5 | C.I. Direct Yellow 86 | (10 g)
